Measured values from US12721343B2, “Methods and uses of a mixture comprising alpha-cypermethrin and dinotefuran for controlling invertebrate pests in t” (BASF AGRO B.V., priority 2020, dated 2026).

Key:
Assay type in all cases: in vivo
[1] = test system: Black cut worm (Agrostis ypsilon, AGROYP); test: Field bioassay with caged black cutworm larvae on putting green; conditions: for % Control / % activity: alpha-cypermethrin 47.5, dinotefuran 600, combination 47.5 + 190 g ai/ha; for Black Cutworm Counts (average surviving larvae per treatment per sample, 10 larvae/plot): 19 days after treatment, alpha-cypermethrin 47.5, dinotefuran 600, combination 47.5 + 190 g ai/hectare
Method: (§1) Synergism can be described as an interaction where the combined effect of two or more compounds is greater than the sum of the individual effects of each of the compounds. The presence of a synergistic effect in terms of percent control, between two mixing partners (X and Y) can be calculated using the Colby equation (Colby, S. R., 1967, Calculating Synergistic and Antagonistic Responses in Herbicide Combinations, Weeds, 15, 20-22):
The study was conducted on a creeping bentgrass/annual bluegrass putting green in a golf course. The study was a field bioassay where insect larvae were placed in cages at different intervals after applying insecticide treatments.
Applications were made to 4-foot by 6-foot plots replicated four times in 813 liter spray volume per hectare. Black cutworm (Agrostis ypsilon) larvae were caged in the turf at after the treatments were applied. Cages consisted of six-inch diameter metal cans. Two cages were inserted into each plot and five second-instar larvae were placed into each cage (total of 10 larvae/plot) before dusk. Window screen and a plastic louver were placed on top of the cages and held down with nails to secure the larvae. Larvae were caged for four days (96 hours) then a disclosing solution of 1 fl. oz. Joy Ultra dish soap in 1 gallon of water was used to flush surviving larvae 19 days after treatment.

[2] = test system: Masked chafer grub, Cyclocephala spp. (CYCCSP); test: Perennial ryegrass plot trial against masked chafer grubs (seeded adults), live grub counts; conditions: for % Control / % activity: alpha-cypermethrin 95, dinotefuran 600, combination 95 + 380 g ai/ha; for Masked Chafer grub counts (average live grubs per treatment per sample): 4 days after treatment, alpha-cypermethrin 95, dinotefuran 600, combination 95 + 380 g ai/hectare
Method: as §1
The study was conducted on perennial ryegrass. Individual plots were 6 ft×6 ft and arranged in a randomized complete block design with 4 replications. Adult Cyclocephala spp. (masked chafer) were collected when active and immediately placed inside covered PVC rings on each plot. Approximately 50 adult masked chafers were added to each plot throughout the active adult stage. The rings were removed 24-36 hours after insecticide application. After the treatment, the plots were irrigated immediately with approximately 0.125″ of water. Treatments were applied in water equivalent to 813 liters/hectare. The number of live grub larvae was assessed 4 days after treatment by removing a two-foot strip of sod cut to a […] each plot (12 ft2 per plot).

[3] = test system: Sod webworm (Herpetogramma phaeopteralis, PACYPH); test: Field trial against sod webworm, larvae counts; conditions: for % Control / % activity: alpha-cypermethrin 47.5, dinotefuran 600, combination 47.5 + 190 g ai/ha; for Sod Webworm Counts (average number of larvae per treatment per sample): 7 days after treatment, alpha-cypermethrin 47.5, dinotefuran 600, combination 47.5 + 190 g ai/hectare
Text: as §1
Treatments were applied with a natural infestation of sod webworm. The experiment was conducted in four replications, utilizing 3×3 m2 plots. One application was made in 813 liters per hectare spray volume. po The treatments consisted of an untreated check, formulations of either alpha-cypermethrin at a use rate of 47.5 grams ai/hectare, dinotefuran at 600 gram ai/hectare or a combination of alpha-cypermethrin and dinotefuran at 47.5+190 grams ai/hectare.
Direct visual counts were made of sod webworm larvae in each plot 7 days after treatment.

[4] = test system: Masked chafer (Cyclocephala spp., CYCCSP); test: Turf trial against masked chafer grubs (Kentucky Bluegrass, natural infestation), larvae counts; conditions: for % Control / % activity: alpha-cypermethrin 95, dinotefuran 600, combination 95 + 380 g ai/ha; for Masked Chafer Grub Counts (average per treatment per sample, per 1 sq. ft.): 62 days after treatment, alpha-cypermethrin 95, dinotefuran 600, combination 95 + 380 g ai/hectare
Method: as §1
The trial was conducted with Kentucky Bluegrass as main turf variety, with a natural infestation of masked chafer grubs. Treatments were arranged in a randomized complete block design and replicated four times in plots measuring 24 ft^2.
Treatments were applied in 813 liter/hectare spray volume.
White grub control was determined by larvae counts 62 days after treatment. A sod cutter cut a strip down the center of each replicate and a shovel cut the stirp into a small square in the middle of each plot. The number of larvae in each 1 sq. ft. were counted.

[5] = test system: Fall armyworm (Spodoptera frugiperda, LAPHFR); test: Golf course trial against fall armyworm, soapy water flush counts; conditions: for % Control / % activity: alpha-cypermethrin 95, dinotefuran 600, combination 95 + 380 g ai/ha; for Fall Armyworm worm Counts (average per treatment per sample, 1-sq-ft): 28 days after treatment, alpha-cypermethrin 95, dinotefuran 600, combination 95 + 380 g ai/hectare
Method: as §1
This trial was conducted at a golf course in an area planted with Hybrid bermudagrass, cv. ‘419’, with natural infestation of fall armyworm. The trial was laid out in 6 replications with each plot measuring 20×25 ft. Applications were made in a spray volume of 203 liters per hectare. The fall armyworms were about second or third instar when found. Fall armyworm density assessment was conducted as soapy water flush. About one gallon of soapy water was poured into an area marked with a 1-sq-ft PVC pipe square. Fall armyworms surfaced within 5 minutes and were counted in each 1-sq-ft area. Fall armyworm densities in a total of three squares (or 3 subsamples) were determined in each plot at each sampling data. Assessments were conducted at 28 days after treatment.

[6] = test system: Japanese beetle grub (Popillia japonica, POPIJA); test: Turf plot trial against Japanese beetle grubs, grub counts in soil cores; conditions: 85 DAT; for % Control / % activity: alpha-cypermethrin 95, dinotefuran 600, combination 95 + 380 g ai/ha; for Japanese Beetle Grub Counts (average per treatment per sample): alpha-cypermethrin 95, dinotefuran 600, combination 95 + 380 g ai/hectare
Method: as §1
The trial was conducted in plots consisting of a mix of Poa pratensis (~10%)—Lolium perenne (~60%)—Festuca arundinacea (~10%), and Agrostis stolonifera (<10%). Treatments were arranged in a randomized complete block design and replicated four times. Each replicate consisted of 3 arenas (~150 in^2). Each replicate was contained within a turfgrass plot measuring 9 ft^2. Treatments were applied in 813 liter/hectare spray volume.
To obtain consistent densities of white grub larvae, Japanese beetles (Popillia japonica) were captured in pheromone traps and seeded into the arenas to mate and oviposit.
20 males and 20 females were placed into 8 inch diameter PVC arenas (height=6 inch). The arena was driven 1 inch into the ground and fit with a mesh covering (324 openings/in2) to prevent beetles from escaping. After 3 days, the mesh coverings were removed, beetles removed, and 40 new beetles (20 males and 20 females) were placed into the arenas, followed by a third introduction. Nineteen days after the initial infestation date, the arenas were dismantled, and the turf was maintained as normal. Turf paint was used to mark the edges of turf where the arenas were located and reapplied as necessary.
White grub suppression was assessed 85 DAT by comparing the densities of grubs in treated and untreated plots. Three soil cores (total area=150 in2) were removed from each plot where the arenas were located using a large golf course cup cutter. Core soils were examined visually, by breaking the soil over a tray and looking for grubs (while in the field). The number of white grubs was pooled for the arenas in each replicate. Japanese beetle larvae present at time of evaluation (98.4%) were a mix of 2nd (42%) and 3rd (58%) instars.

[7] = test system: Southern Chinch Bug (Blissus insularis, BLISIN); test: Field trial against Southern chinch bug, nymph counts by vacuum sampling; conditions: for % Control / % activity: alpha-cypermethrin 95, dinotefuran 600, combination 95 + 380 g ai/ha; for Nymph Counts (average number of Chinch bug nymphs per treatment per sample): 28 days after treatment, alpha-cypermethrin 95, dinotefuran 600, combination 95 + 380 g ai/hectare
Text: as §1
Treatments were applied in a field with a natural infestation of Southern Chinch Bugs. The experiment was conducted with four replications, utilizing 3×3 m2 plots. The application was made in 813 liters per hectare spray volume.
The treatments consisted of an untreated check, and formulations containing either alpha-cypermethrin at a use rate of 95 grams ai/hectare, dinotefuran at 600 gram ai/hectare or a combination of alpha-cypermethrin and dinotefuran at 95+380 grams ai/hectare. Direct visual counts were made of larval chinch bugs in all stages of development after being mechanically vacuumed for 20 seconds from the surface of the turf. Chinch Bug abundance was measured using a commercially available lawn vacuum/blower combination machine by covering the vacuum (intake) orifice with mesh cloth and placing the intake on randomly within the turf plot and holding suction for […]. Samples were collected from each plot in an identical manner. After the sample was collected and the vacuum turned off, the captured contents of the mesh cloth were tapped into a 5-gallon plastic bucket for ease of counting of nymphs (at any instar).
The following average numbers of chinch bug nymphs were collected per sample per treatment 28 days after the insecticide applications were made.

[8] = test system: Fall armyworm, Spodoptera frugiperda (LAPHFR); test: Fall armyworm feeding damage on creeping bentgrass fairway; conditions: for % Reduction / % activity: alpha-cypermethrin 95, dinotefuran 600, combination 95 + 380 g ai/ha; for Fall Armyworm damage (%) (average feeding damage): five days after treatment, two applications, alpha-cypermethrin 95, dinotefuran 600, combination 95 + 380 g ai/hectare
Text: as §1
A trial was established on a mature ‘L-93’ creeping bentgrass fairway. An initial application was made with a repeat application 8 days later. Fall armyworms were artificially infested at the test site eight hours after the second application. Ten living caterpillars were added to each plot and were protected within a PVC ring. Plots were rated five days after treatement for percent damage by caterpillar feeding within the ring area.

[9] = 28 DAT, calculated from solo rates 95 and 600 g ai/ha

| SMILES | % Control / % activity ([1]; 19 DAT) | Black Cutworm Counts (average surviving larvae per treatment per sample, 10 larvae/plot) [1] | % Control / % activity ([2]; 4 DAT) | Masked Chafer grub counts (average live grubs per treatment per sample) [2] | % Control / % activity ([3]; 7 DAT) | Sod Webworm Counts (average number of larvae per treatment per sample) [3] | % Control / % activity ([4]; 62 DAT) | Masked Chafer Grub Counts (average per treatment per sample, per 1 sq. ft.) [4] | % Control / % activity ([5]; 28 DAT) | Fall Armyworm worm Counts (average per treatment per sample, 1-sq-ft) [5] | % Control / % activity [6] | Japanese Beetle Grub Counts (average per treatment per sample) [6] | % Control / % activity ([7]; 28 DAT) | Nymph Counts (average number of Chinch bug nymphs per treatment per sample) [7] | % Reduction / % activity ([8]; 5 DAT) | Fall Armyworm damage (%) (average feeding damage) [8] | also measured |
| --- | --- | --- | --- | --- | --- | --- | --- | --- | --- | --- | --- | --- | --- | --- | --- | --- | --- |
| CNC(=N[N+](=O)[O-])NCC1CCOC1 (racemic) [Dinotefuran, (RS)-1-methyl-2-nitro-3-(tetrahydro-3-furylmethyl) guanidine] | 17% | 7.25 | 13% | 19.5 | 60% | 2.3 | 64% | 1.00 | 2% | 3.17 | 0% | 2.00 | 81% | 5.8 | 75% | 5.00% | – |
| CC1(C)C(C=C(Cl)Cl)C1C(=O)OC(C#N)c1cccc(Oc2ccccc2)c1 (racemic) [Alpha-cypermethrin, racemate comprising (R)-α-cyano-3-phenoxybenzyl (1S, 3S)-3-(2,2-dichlorovinyl)-2,2-dimethylcyclopropanecarboxy late; (S)-α-cyano-3-phenoxybenzyl (1R, 3R) (2,2-dichlorovinyl)-2,2-dimethylcyclopropanecarboxylate] | 80% | 1.75 | 18% | 18.5 | 57% | 2.5 | 91% | 0.25 | 57% | 1.39 | 0% | 2.25 | 81% | 6.0 | 94% | 1.25% | expected % activity (Colby) ([1]; 19 DAT, calculated from solo rates 47.5 and 600 g ai/ha): 83%; expected % activity (Colby) ([2]; 4 DAT, calculated from solo rates 95 and 600 g ai/ha): 29%; expected % activity (Colby) ([3]; 7 DAT, calculated from solo rates 47.5 and 600 g ai/ha): 87%; expected % activity (Colby) ([4]; 62 DAT, calculated from solo rates 95 and 600 g ai/ha): 97%; expected % activity (Colby) [5, 9]: 58%; expected % activity (Colby) ([6]; calculated from solo rates 95 and 600 g ai/ha): 0%; expected % activity (Colby) [7, 9]: 96%; expected % activity (Colby) ([8]; 5 DAT, calculated from solo rates 95 and 600 g ai/ha): 98% |
